{
  "source": "patent US8716472B2",
  "about": "“Tripodal cyclohexane derivatives and their use as carbohydrate receptors” (University of Rochester, priority 2006, dated 2014)",
  "key": {"[1]": {"experiment": "1D 1H NMR titration of receptor with octyl pyranoside", "type": "binding", "conditions": "n-octyl-β-D-glucopyranoside; CDCl3, 298° K; receptor 1 mM", "method": "The binding affinity of Compound 11 to octyl pyranosides was tested using 1D ^1H NMR titrations in dry and deacidified CDCl3 at 298° K. The Compound 11 in fixed concentration (1 mM) was titrated with increasing amount of n-octyl-β-D-glucopyranoside and the change in the amide proton resonance of Compound 11 was monitored (FIG. 5A)."}, "[2]": {"experiment": "1H NMR reverse titration (receptor into the sugar) and Job plot", "type": "binding", "conditions": "CDCl3, n-octyl-β-D-glucopyranoside", "method": "(§1) The binding affinity of Compound 12 towards a set of octylglycosides (FIG. 15) was measured using ^1H NMR titrations in CDCl3 and UV titrations in chloroform and methanol.\nA reverse titration format (receptor into the sugar) was employed for estimating binding by ^1H NMR titrations in order to avoid the complications caused due to micelles formation by octylglycosides at higher concentrations (Vacca et al., J. Am. Chem. Soc. 126:16456-16465 (2004), which is hereby incorporated by reference in its entirety). […] Job plot analysis (as modified for NMR) (Fokkens et al., Chem. Eur. J. 11:477-494 (2005), which is hereby incorporated by reference in its entirety) verified a 1:1 association between Compound 12 and n-octyl-β-D-glucopyranoside (FIG. 9B)."}, "[3]": {"experiment": "UV-Vis titration, octanol control", "type": "binding", "conditions": "298° K", "method": "as §1\n(§2) To derive quantitative binding information, UV-Vis titrations were performed. The receptor at fixed concentration was titrated with the octylglycosides in dry and deacidified chloroform or methanol (298° K). Each titration was performed in duplicate to verify results."}, "[4]": {"experiment": "UV-Vis titration of n-octyl monosaccharides with receptor", "type": "binding", "conditions": "for Ka in chloroform / Ka in methanol: 298° K", "method": "as §1, §2"}, "[5]": {"experiment": "Fluorescence titration of n-octyl monosaccharides with receptor", "type": "binding", "conditions": "298° K", "method": "as §1\n(§3) The same titration protocol employed in Example 7 was also employed in this Example (methanol at 298° K; duplicate titrations).\n(§4) Fluorescence titrations of 7 with the set of octylglycosides (FIG. 15) in methanol were performed to study the effect of substitution of 4-methylquinoline instead of 4-cyanopyridine on the binding affinity and selectivity of Compound 12. […] The stoichiometry of binding between Compound 7 and n-octyl-α-D-glucopyranoside was determined by Job plot to be 1:1 (FIG. 12)."}, "[6]": {"experiment": "Fluorescence titration, octanol control", "type": "binding", "conditions": "298° K", "method": "as §1, §3, §4"}, "[7]": {"conditions": "n-octyl β-D-galacto pyranoside, UV-Vis"}},
  "note": "“Also recorded” adds a separate entry of the source.",
  "data": [
    {"compound": "Cc1cccc(NC(=O)[C@H]2C[C@@H](C(=O)Nc3cccc(C)n3)C[C@@H](C(=O)Nc3cccc(C)n3)C2)n1", "note": "[Compound 11, cis-cyclohexane-1,3,5-tricarboxylic acid tris-[(6-methyl-pyridin-2-yl)-amide]]", "values": [
      {"measurement": "Ka (measured affinity, NMR titration)", "setting": "[1]", "result": 91, "unit": "M⁻¹"}
    ]},
    {"compound": "N#Cc1ccnc(C2CC(c3cc(C#N)ccn3)CC(c3cc(C#N)ccn3)C2)c1", "note": "(stereo not drawn) [Compound 12, 2,2′,2″-cyclohexane-1,3,5-triyltri(4-cyanopyridinyl)]", "values": [
      {"measurement": "changes in carbohydrate hydroxyl chemical shifts on titration into the sugar", "setting": "[2]", "result": "clearly visible"},
      {"measurement": "Ka in chloroform", "setting": "[3]", "result": "No binding; also recorded: (no binding)"},
      {"measurement": "affinity for n-octyl-β-D-galactopyranoside relative to the β-D-glucopyranoside", "setting": "[4]; UV-Vis titration", "result": "roughly half"},
      {"measurement": "Ka in chloroform", "setting": "[4]; n-octyl α-D-galacto pyranoside", "result": "17,600 ± 100 M^−1"},
      {"measurement": "Ka in methanol", "setting": "[4]; n-octyl α-D-galacto pyranoside", "result": "9,200 ± 1,100 M^−1"},
      {"measurement": "Ka in chloroform", "setting": "[4]; n-octyl α-D-gluco pyranoside", "result": "183,000±4,200 M^−1"},
      {"measurement": "Ka in methanol", "setting": "[4]; n-octyl α-D-gluco pyranoside", "result": "52,000 ± 2,700 M^−1"},
      {"measurement": "Ka in chloroform", "setting": "[4]; n-octyl α-D-manno pyranoside", "result": "6,700 ± 700 M^−1"},
      {"measurement": "Ka in methanol", "setting": "[4]; n-octyl α-D-manno pyranoside", "result": ">1,200 M^−1"},
      {"measurement": "Ka in chloroform", "setting": "[4]; [7]", "result": "9,800 ± 100 M^−1"},
      {"measurement": "Ka in methanol", "setting": "[4]; [7]", "result": "7,200 ± 1,700 M^−1"},
      {"measurement": "Ka in chloroform", "setting": "[4]; n-octyl β-D-gluco pyranoside", "result": "25,000 ± 600 M^−1"},
      {"measurement": "Ka in methanol", "setting": "[4]; n-octyl β-D-gluco pyranoside", "result": "11,100 ± 600 M^−1"},
      {"measurement": "Ka in chloroform", "setting": "[4]; n-octyl β-D-manno pyranoside", "result": "did not reach saturation up to the limit of the titration; also recorded: (not saturable)"},
      {"measurement": "Ka in methanol", "setting": "[4]; n-octyl β-D-manno pyranoside", "result": "(not saturable)"}
    ]},
    {"compound": "c1cnc(C2CC(c3cnccn3)CC(c3cnccn3)C2)cn1", "note": "(stereo not drawn) [Compound 2, 2,2′,2″-cyclohexane-1,3,5-triyltripyrazine]", "values": [
      {"measurement": "melting point", "result": "122 to 124", "unit": "°C"}
    ]},
    {"compound": "N#Cc1ccncc1", "note": "[4-cyanopyridine, reference compound]", "values": [
      {"measurement": "changes in carbohydrate hydroxyl chemical shifts on titration into the sugar", "setting": "[2]", "result": "no chemical shift changes were observed"}
    ]},
    {"compound": "c1cc(C2CC(c3ccncn3)CC(c3ccncn3)C2)ncn1", "note": "(stereo not drawn) [Compound 3, 4,4′,4″-cyclohexane-1,3,5-triyltripyrimidine]", "values": [
      {"measurement": "melting point", "result": "126 to 128", "unit": "°C"}
    ]},
    {"compound": "Cc1cc(C2CC(c3cc(C)c4ccccc4n3)CC(c3cc(C)c4ccccc4n3)C2)nc2ccccc12", "note": "(stereo not drawn) [Compound 7, 2,2,2″-cyclohexane-1,3,5-triyltri(4-methylquinoline)]", "values": [
      {"measurement": "Ka in methanol", "setting": "[5]; n-octyl α-D-galacto pyranoside", "result": "6,600 ± 200 M^−1"},
      {"measurement": "Ka in methanol", "setting": "[5]; n-octyl α-D-gluco pyranoside", "result": "14,900±1700 M^−1"},
      {"measurement": "Ka in methanol", "setting": "[5]; n-octyl α-D-manno pyranoside", "result": "2600 ± 200", "unit": "M⁻¹"},
      {"measurement": "Ka in methanol", "setting": "[5]; n-octyl β-D-galacto pyranoside", "result": "3,200 ± 80 M^−1"},
      {"measurement": "Ka in methanol", "setting": "[5]; n-octyl β-D-gluco pyranoside", "result": "9,200 ± 600 M^−1"},
      {"measurement": "Ka in methanol", "setting": "[5]; n-octyl β-D-manno pyranoside", "result": ">400", "unit": "M⁻¹"},
      {"measurement": "Ka in methanol", "setting": "[6]", "result": "(no binding)"}
    ]},
    {"compound": "N#Cc1ccnc(C2CC(c3cc(C#N)ccn3)CC(c3cnccc3C#N)C2)c1", "note": "(stereo not drawn) [Compound 14, 2,2′,3′-cyclohexane-1,3,5-triyltri(4-cyanopyridinyl)]", "values": [
      {"measurement": "Ka in chloroform", "setting": "[4]; n-octyl α-D-gluco pyranoside", "result": "no affinity"}
    ]}
  ]
}
